Laboratory results reported in patent publication EP0238178B1, “Novel derivatives of erythromycylamine” (ELI LILLY AND COMPANY, priority 1986, dated 1987).
Converted amounts (≈) assume the structure as drawn.

Key:
[1] = test system: Streptococcus sp. group D 2041; assay: MIC, standard agar-dilution assay; format: cell-based; conditions: read-out: MIC
Streptococcus pyogenes = assay: Experimental bacterial infection in mice, ED50; format: in vivo; conditions: Streptococcus pyogenes, po, two doses, dose protecting 50% of animals, read-out: Oral ED50
Protocol: (§1) The new derivatives of this invention have also shown in vivo antimicrobial activity against experimental bacterial infections. When two doses of test compound were administered to mice in experimental infections, the activity observed was measured as an EDso value [effective dose in mg/kg to protect 50% of the test animals: see Warren Wick, et al., J. Bacteriol. 81, 233-235 (1961)].

Streptococcus pneumoniae = assay: Experimental bacterial infection in mice, ED50; format: in vivo; conditions: Streptococcus pneumoniae, po, two doses, dose protecting 50% of animals, read-out: Oral ED50
Protocol: as §1

Staphylococcus aureus = assay: Experimental bacterial infection in mice, ED50; format: in vivo; conditions: Staphylococcus aureus, po, two doses, dose protecting 50% of animals, read-out: Oral ED50
Protocol: as §1

[2] = test system: Haemophilus influenzae C.L.; assay: MIC, standard agar-dilution assay; format: cell-based; conditions: Ampicillin-sensitive strain, read-out: MIC
[3] = test system: Staphylococcus epidermidis 222; assay: MIC, standard agar-dilution assay; format: cell-based; conditions: read-out: MIC
[4] = test system: Haemophilus influenzae 76; assay: MIC, standard agar-dilution assay; format: cell-based; conditions: Haemophilus influenzae 76, Ampicillin-resistant strain; read-out: MIC
[5] = test system: Staphylococcus aureus V41; assay: MIC, standard agar-dilution assay; format: cell-based; conditions: Staphylococcus aureus V41, Penicillin-resistant strain, inducibly-resistant to erythromycin; read-out: MIC
From the text: (§2) In addition to excellent in vitro activity against erythromycin-sensitive bacteria, several members of this new series have shown in vitro activity against erythromycin-resistant strains. These include strains which are inducibly-resistant to erythromycin (S.. aureus V41 and X400 and S. epidermidis EPI1) and even strains which are constitutively-resistant (S. epidermidis 270).

[6] = test system: Staphylococcus aureus X400; assay: MIC, standard agar-dilution assay; format: cell-based; conditions: Staphylococcus aureus X400, Methicillin-resistant strain, inducibly-resistant to erythromycin; read-out: MIC
From the text: as §2

[7] = test system: Streptococcus pyogenes C203; assay: MIC, standard agar-dilution assay; format: cell-based; conditions: read-out: MIC
[8] = test system: Staphylococcus aureus X1.1; assay: MIC, standard agar-dilution assay; format: cell-based; conditions: read-out: MIC
[9] = test system: Streptococcus pneumoniae Park I; assay: MIC, standard agar-dilution assay; format: cell-based; conditions: read-out: MIC
[10] = test system: Staphylococcus aureus S13E; assay: MIC, standard agar-dilution assay; format: cell-based
[11] = test system: Streptococcus sp. group D X66; assay: MIC, standard agar-dilution assay; format: cell-based; conditions: Streptococcus sp. group D X66; read-out: MIC
[12] = test system: Klebsiella pneumoniae X68; assay: MIC, standard agar-dilution assay; format: cell-based; conditions: read-out: MIC
Escherichia coli EC14 = assay: MIC, standard agar-dilution assay; format: cell-based; conditions: read-out: MIC

CCCCCCCCCCN[C@@H]1[C@H](C)[C@@H](O)[C@](C)(O)[C@@H](CC)OC(=O)[C@H](C)[C@@H](O[C@H]2C[C@@](C)(OC)[C@@H](O)[C@H](C)O2)[C@H](C)[C@@H](O[C@@H]2O[C@H](C)C[C@H](N(C)C)[C@H]2O)[C@](C)(O)C[C@H]1C [Compound 9, 9-Deoxo-9-(n-decylamino)erythromycin]
MIC [1]: 2 µg/mL (≈ 2.29 µM)
ED50 (Streptococcus pyogenes): > 50 mg/kg
ED50 (Streptococcus pneumoniae): > 50 mg/kg
ED50 (Staphylococcus aureus): > 50 mg/kg
MIC [2]: 2 µg/mL (≈ 2.29 µM)
MIC [3]: 1 µg/mL (≈ 1.14 µM)
MIC [4]: 1 µg/mL (≈ 1.14 µM)
MIC [5]: 4 µg/mL (≈ 4.57 µM)
MIC [6]: 8 µg/mL (≈ 9.14 µM)
MIC [7]: 0.015 µg/mL (≈ 0.0171 µM)
MIC [8]: 1 µg/mL (≈ 1.14 µM)
MIC [9]: 0.015 µg/mL (≈ 0.0171 µM)
MIC [10]: 0.5 µg/mL (≈ 0.571 µM)
MIC [11]: 0.25 µg/mL (≈ 0.286 µM)

CCCCCCCCCCCCN[C@@H]1[C@H](C)[C@@H](O)[C@](C)(O)[C@@H](CC)OC(=O)[C@H](C)[C@@H](O[C@H]2C[C@@](C)(OC)[C@@H](O)[C@H](C)O2)[C@H](C)[C@@H](O[C@@H]2O[C@H](C)C[C@H](N(C)C)[C@H]2O)[C@](C)(O)C[C@H]1C [Compound 10, 9-Deoxo-9-(n-dodecylamino)erythromycin]
MIC [1]: 8 µg/mL (≈ 8.86 µM)
ED50 (Streptococcus pyogenes): > 50 mg/kg
ED50 (Streptococcus pneumoniae): > 50 mg/kg
ED50 (Staphylococcus aureus): > 45 mg/kg
MIC [2]: 8 µg/mL (≈ 8.86 µM)
MIC [3]: 4 µg/mL (≈ 4.43 µM)
MIC [4]: 4 µg/mL (≈ 4.43 µM)
MIC [5]: 8 µg/mL (≈ 8.86 µM)
MIC [6]: 8 µg/mL (≈ 8.86 µM)
MIC [7]: 0.5 µg/mL (≈ 0.554 µM)
MIC [8]: 4 µg/mL (≈ 4.43 µM)
MIC [9]: 0.06 µg/mL (≈ 0.0664 µM)
MIC [10]: 2 µg/mL (≈ 2.21 µM)
MIC [11]: 1 µg/mL (≈ 1.11 µM)

CC[C@H]1OC(=O)[C@H](C)[C@@H](O[C@H]2C[C@@](C)(OC)[C@@H](O)[C@H](C)O2)[C@H](C)[C@@H](O[C@@H]2O[C@H](C)C[C@H](N(C)C)[C@H]2O)[C@](C)(O)C[C@@H](C)[C@H](NCCC(C)C)[C@H](C)[C@@H](O)[C@]1(C)O [Compound 11, 9-Deoxo-9-[(3-methylbutyl)amino]erythromycin]
MIC [1]: 1 µg/mL (≈ 1.24 µM)
ED50 (Streptococcus pyogenes): 8.8 mg/kg
ED50 (Streptococcus pneumoniae): 10.8 mg/kg
ED50 (Staphylococcus aureus): 12.5 mg/kg
MIC [2]: 1 µg/mL (≈ 1.24 µM)
MIC [12]: 128 µg/mL (≈ 159 µM)
MIC [3]: 0.25 µg/mL (≈ 0.311 µM)
MIC [4]: 1 µg/mL (≈ 1.24 µM)
MIC (Escherichia coli EC14): 128 µg/mL (≈ 159 µM)
MIC [7]: 0.06 µg/mL (≈ 0.0745 µM)
MIC [8]: 1 µg/mL (≈ 1.24 µM)
MIC [9]: 0.03 µg/mL (≈ 0.0373 µM)
MIC [10]: 0.5 µg/mL (≈ 0.621 µM)
MIC [11]: 0.125 µg/mL (≈ 0.155 µM)

CC[C@H]1OC(=O)[C@H](C)[C@@H](O[C@H]2C[C@@](C)(OC)[C@@H](O)[C@H](C)O2)[C@H](C)[C@@H](O[C@@H]2O[C@H](C)C[C@H](N(C)C)[C@H]2O)[C@](C)(O)C[C@@H](C)[C@H](NCC2CCCCCCC2)[C@H](C)[C@@H](O)[C@]1(C)O [Compound 16, 9-Deoxo-9-[(cyclooctylmethyl)amino]erythromycin]
MIC [1]: 1 µg/mL (≈ 1.16 µM)
MIC [2]: 1 µg/mL (≈ 1.16 µM)
MIC [3]: 0.25 µg/mL (≈ 0.291 µM)
MIC [4]: 1 µg/mL (≈ 1.16 µM)
MIC (Escherichia coli EC14): 64 µg/mL (≈ 74.5 µM)
MIC [5]: 64 µg/mL (≈ 74.5 µM)
MIC [6]: 64 µg/mL (≈ 74.5 µM)
MIC [7]: < 0.008 µg/mL
MIC [8]: 0.5 µg/mL (≈ 0.582 µM)
MIC [10]: 0.06 µg/mL (≈ 0.0698 µM)
MIC [11]: < 0.008 µg/mL

CC[C@H]1OC(=O)[C@H](C)[C@@H](O[C@H]2C[C@@](C)(OC)[C@@H](O)[C@H](C)O2)[C@H](C)[C@@H](O[C@@H]2O[C@H](C)C[C@H](N(C)C)[C@H]2O)[C@](C)(O)C[C@@H](C)[C@H](NCC(C)(C)CO)[C@H](C)[C@@H](O)[C@]1(C)O [Compound 22, 9-Deoxo-9-[(3-hydroxy-2,2-dimethylpropyl)amino]erythromycin]
MIC [1]: 4 µg/mL (≈ 4.87 µM)
ED50 (Streptococcus pyogenes): 19.8 mg/kg
ED50 (Streptococcus pneumoniae): 46.1 mg/kg
ED50 (Staphylococcus aureus): > 50 mg/kg
MIC [2]: 1 µg/mL (≈ 1.22 µM)
MIC [12]: 64 µg/mL (≈ 77.9 µM)
MIC [3]: 1 µg/mL (≈ 1.22 µM)
MIC [4]: 0.25 µg/mL (≈ 0.304 µM)
MIC (Escherichia coli EC14): 32 µg/mL (≈ 39 µM)
MIC [7]: 0.03 µg/mL (≈ 0.0365 µM)
MIC [8]: 1 µg/mL (≈ 1.22 µM)
MIC [9]: 0.015 µg/mL (≈ 0.0183 µM)
MIC [10]: 1 µg/mL (≈ 1.22 µM)
MIC [11]: 0.25 µg/mL (≈ 0.304 µM)

CC[C@H]1OC(=O)[C@H](C)[C@@H](O[C@H]2C[C@@](C)(OC)[C@@H](O)[C@H](C)O2)[C@H](C)[C@@H](O[C@@H]2O[C@H](C)C[C@H](N(C)C)[C@H]2O)[C@](C)(O)C[C@@H](C)[C@H](NCCOCCOC)[C@H](C)[C@@H](O)[C@]1(C)O [Compound 25, 9-Deoxo-9-[[2-(2-methoxyethoxy)ethyl]amino]erythromycin]
MIC [1]: 8 µg/mL (≈ 9.56 µM)
ED50 (Streptococcus pyogenes): 27.1 mg/kg
ED50 (Streptococcus pneumoniae): 21.8 mg/kg
ED50 (Staphylococcus aureus): 23.3 mg/kg
MIC [2]: 2 µg/mL (≈ 2.39 µM)
MIC [12]: 128 µg/mL (≈ 153 µM)
MIC [3]: 1 µg/mL (≈ 1.19 µM)
MIC [4]: 4 µg/mL (≈ 4.78 µM)
MIC (Escherichia coli EC14): 64 µg/mL (≈ 76.5 µM)
MIC [7]: 0.125 µg/mL (≈ 0.149 µM)
MIC [8]: 1 µg/mL (≈ 1.19 µM)
MIC [9]: 0.015 µg/mL (≈ 0.0179 µM)
MIC [10]: 8 µg/mL (≈ 9.56 µM)
MIC [11]: 0.25 µg/mL (≈ 0.299 µM)
